Assay results published in PMC8694002 (RSC Advances, 2021).
Read-outs that look alike come from different tables or passages of the source.

Assays:
PTP1B (1–321) = target: T1, PTP1B (1–321) (Homo sapiens, UniProt P18031); test: PTP1B inhibition assay with DiFMUP as substrate
T1 sequence (P18031 1-321): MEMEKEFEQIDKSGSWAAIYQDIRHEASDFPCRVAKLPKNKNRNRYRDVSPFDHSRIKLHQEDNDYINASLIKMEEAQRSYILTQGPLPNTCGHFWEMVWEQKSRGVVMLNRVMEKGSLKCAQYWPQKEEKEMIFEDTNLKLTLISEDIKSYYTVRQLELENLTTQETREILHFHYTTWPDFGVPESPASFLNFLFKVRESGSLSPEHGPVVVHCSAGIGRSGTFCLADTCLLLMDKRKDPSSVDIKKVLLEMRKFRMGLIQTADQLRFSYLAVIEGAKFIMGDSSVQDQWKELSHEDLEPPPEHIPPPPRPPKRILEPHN

TCPTP (13–358) = target: T2, TCPTP (13–358) (Homo sapiens, UniProt P17706); test: TCPTP inhibition assay with DiFMUP as substrate; assay type: biochemical; settings: read-out: IC50 TCPTP; means ± SD of three replications
T2 sequence (P17706 13-358): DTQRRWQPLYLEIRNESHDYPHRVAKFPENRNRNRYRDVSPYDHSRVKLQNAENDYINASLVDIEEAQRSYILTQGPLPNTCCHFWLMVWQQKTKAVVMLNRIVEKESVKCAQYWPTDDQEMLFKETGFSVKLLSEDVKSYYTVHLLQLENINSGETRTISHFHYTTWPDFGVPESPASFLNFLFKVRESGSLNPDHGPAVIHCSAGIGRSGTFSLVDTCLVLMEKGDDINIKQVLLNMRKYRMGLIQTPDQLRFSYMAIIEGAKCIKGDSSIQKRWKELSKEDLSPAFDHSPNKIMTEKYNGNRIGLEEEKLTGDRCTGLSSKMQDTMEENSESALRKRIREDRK

O=S(=O)(O)c1ccc2cc(N=Nc3cc(S(=O)(=O)O)c4cccnc4c3O)ccc2c1 [NSC-87877]
IC50 (PTP1B (1–321); PTP1B, Table 3, means ± SD of three replications): 26.2 ± 8.58 µM
IC50 (PTP1B (1–321); read-out: IC50 PTP1B, means ± SD of three replications): 26.2 ± 8.58 µM
IC50 (TCPTP (13–358)): 71.9 ± 3.87 µM
